Assay results: US10407467B2, “Polymyxin derivatives and their use in combination therapy together with different antibiotics” (priority 2013, dated 2019)
Counter-ions that a name gives are not always drawn. Bridge positions count the residues as written; N and C are the ends. Square brackets hold non-standard residues; d marks the D form. Peptide text beside a SMILES is read from it. * marks the point of attachment. ξ: configuration not given here. X18 = O=C([C@H]1CC[C@H](O)CC1)*; Thr(3ξ) = CC(O)[C@H](N)C(=O)O; Dab = NCC[C@H](N)C(=O)O; X23 = O=C(CCCN1CCOCC1)*

Legend:
Format in all cases: cell-based
[1] = system: Acinetobacter baumannii; test: MIC, sole activity (no second agent); details: Table 6A; no second agent; different supplier of Cation-adjusted MHB
Protocol: (§1) To evaluate the potency and spectrum of the compounds both alone and in combination with another agent, susceptibility testing was performed against up to four strains of each of the four Gram negative pathogens, Escherichia coli, Pseudomonas aeruginosa, Klebsiella pneumoniae and Acinetobacter baumannii.
(§2) The inoculum was prepared by making a direct suspension of isolated colonies (selected from an 18-24 hour Mueller-Hinton agar plate) adjusted to the 0.5 McFarland standard.
(§3) The assays were performed in duplicate.
(§4) In cases where the duplicate values varied by less than 2-fold, the lower of the two values is reported. If a variation of greater than 2-fold was observed, the assay was considered non-valid. Several of the compounds were subjected to multiple tests, and where this is the case, the MIC reflects the modal value obtained.
(§5) MICs were determined as described herein, except that a different supplier of Cation-adjusted MHB was used. […] Values are reported relative to Polymyxin B.

[2] = system: Escherichia coli; test: MIC, sole activity (no second agent)
Protocol: as §1, §2, §3, §4, §5

[3] = system: Klebsiella pneumoniae; test: MIC, sole activity (no second agent)
Protocol: as §1, §2, §3, §4, §5

[4] = system: Pseudomonas aeruginosa; test: MIC, sole activity (no second agent)
Protocol: as §1, §2, §3, §4, §5

[5] = system: Klebsiella pneumoniae; test: MIC, compound in combination with a second agent (broth microdilution); details: 1:1 (wt:wt) combination with Rifampicin, MIC = total drug concentration; for MIC K. pneumoniae ATCC-BAA-2146: strain ATCC-BAA-2146; for MIC K. pneumoniae CCUG-59348: strain CCUG-59348; for MIC K. pneumoniae NCTC 13438: strain NCTC 13438
Protocol: as §1
(§6) Ratios of components in a combination, such as 1:1, refers to a weight to weight ratio. The minimum inhibitory concentration (MIC) refers to the total drug concentration (e.g. test compound plus second agent, such as Rifampicin).
as §2, §3, §4
(§7) The minimum inhibitory concentration refers to the total drug concentration (e.g. test compound plus Rifampicin). The compounds are used at equal mass within the combination. The weight refers to the mass of compound as used, for example the Example Compounds are used in their TFA or sulphate salt forms.
(§8) MICs refer to the total drug concentration. Thus, where a 1:1 combination is used, this is the amount of the test compound plus the second agent. For comparison, the MIC values for the second agent alone are also given.

[6] = system: Pseudomonas aeruginosa; test: as above; details: 1:1 (wt:wt) combination with Rifampicin; MIC = total drug concentration; strain CCUG 59626
Protocol: as §1, §6, §2, §3, §4, §7, §8

[7] = Table 6A, no second agent, different supplier of Cation-adjusted MHB
[8] = in the absence of Rifampicin, strain ATCC25922
[9] = in the absence of Rifampicin, strain ATCC 4352
[10] = in the absence of Rifampicin, strain ATCC27853

| Compound | MIC A. baumannii ATCC BAA-747 [1] [micrograms/mL] | MIC A. baumannii NCTC 13424 [1] [micrograms/mL] | MIC E. coli NCTC 13441 [2, 7] [micrograms/mL] | MIC K. pneumoniae ATCC 4352 [3, 7] [micrograms/mL] | MIC K. pneumoniae ATCC BAA-2146 [3, 7] [micrograms/mL] | MIC P. aeruginosa ATCC 27853 [4, 7] [micrograms/mL] | MIC P. aeruginosa CCUG 59347 [4, 7] [micrograms/mL] | MIC E. coli ATCC25922 [2, 7] [micrograms/mL] | MIC K. pneumoniae ATCC-BAA-2146 [5] [micrograms/mL] | MIC K. pneumoniae CCUG-59348 [5] [micrograms/mL] | MIC K. pneumoniae NCTC 13438 [5] [micrograms/mL] | MIC P. aeruginosa CCUG 59626 [6] [micrograms/mL] | MIC E. coli ATCC25922 [2, 8] [micrograms/mL] | MIC K. pneumoniae ATCC 4352 [3, 9] [micrograms/mL] | MIC P. aeruginosa ATCC 27853 [4, 10] [micrograms/mL] |
| --- | --- | --- | --- | --- | --- | --- | --- | --- | --- | --- | --- | --- | --- | --- | --- |
| 2-(1- (Aminomethyl)cyclohexyl) ethanoyl Polymyxin B nonapeptide [Example A30] | 8 | 8 | 1 | 0.5 | 1 | 0.5 | 1 | – | – | – | – | – | – | – | – |
| 2-(1- Hydroxycyclohexyl)ethanoyl polymyxin B nonapeptide [Example A15] | >8 | >8 | 8 | 4 | – | 4 | 8 | 8 | – | – | – | – | – | – | – |
| 2-(R)-(2-amino-2- cyclohexyl)ethanoyl polymyxin B nonapeptide [Example A38] | 1 | 2 | 2 | 0.5 | 2 | 0.5 | 1 | 0.5 | – | – | – | – | – | – | – |
| 2-(RS)-2-aminooctyl polymyxin B decapeptide [Example A5] | 1 | 2 | – | 0.5 | 0.5 | 0.25 | 0.5 | 0.5 | – | – | – | – | – | – | – |
| 2-Aminomethylbenzoyl polymyxin B nonapeptide [Example A31] | >8 | >8 | 2 | 2 | >8 | 0.5 | 2 | 8 | – | – | – | – | – | – | – |
| 3-(R)-3-Amino-5- methylhexanoyl polymyxin B nonapeptide [Example A45] | >8 | >8 | 2 | 1 | – | 0.5 | 1 | 2 | – | – | – | – | – | – | – |
| 3-(RS)-3-amino octanoyl polymyxin B nonapeptide. Isomer 1 [Example A32] | 2 | 2 | 0.5 | 0.5 | 0.25 | 0.5 | 1 | 0.5 | – | – | – | – | – | – | – |
| 3-Methylpiperidine-3- carbonyl polymyxin B nonapeptide [Example A39] | >8 | >8 | 8 | 8 | >8 | 2 | 4 | >8 | – | – | – | – | – | – | – |
| 4-[3(R,S)-3-Amino-3- cyclohexanepropanamido] piperidine-4-carbonyl polymyxin B nonapeptide [Example A28] | >8 | >8 | >8 | >8 | >8 | 2 | 4 | >8 | – | – | – | – | – | – | – |
| 5-Hydroxypiperidine-3- carbonyl polymyxin B nonapeptide [Example A50] | – | 2 | 2 | 0.25 | 2 | 1 | 2 | 1 | – | – | – | – | – | – | – |
| CCCCCCC(O)C(=O)N[C@H](C(=O)N[C@@H](CCN)C(=O)N[C@H]1CCNC(=O)[C@H](C(C)O)NC(=O)[C@H](CCN)NC(=O)[C@H](CCN)NC(=O)[C@H](CC(C)C)NC(=O)[C@@H](CC(C)C)NC(=O)[C@H](CCN)NC1=O)C(C)O (mixture of isomers) [Example 19, 2-(RS)-2- Hydroxyoctanoyl polymyxin E nonapeptide] | – | – | – | – | – | – | – | – | 2 | 2 | 0.5 | 1 | 8 | 8 | 4 |
| CC(C)C[C@@H]1NC(=O)[C@@H](Cc2ccccc2)NC(=O)[C@H](CCN)NC(=O)[C@@H](NC(=O)[C@H](CCN)NC(=O)[C@@H](NC(=O)CCCN2CCOCC2)C(C)O)CCNC(=O)[C@H](C(C)O)NC(=O)[C@H](CCN)NC(=O)[C@H](CCN)NC1=O (some centres unmarked) [Example 14, 4- Morpholinylbutanoyl polymyxin B nonapeptide, trifluoroacetate salt] (X23-[Thr(3ξ)][Dab][Dab][Dab][dF]L[Dab][Dab][Thr(3ξ)]; lactam 3-C) | – | – | – | – | – | – | – | – | 2 | 16 | – | 0.5 | 4 | >32 | 1 |
| CC(C)C[C@@H]1NC(=O)[C@@H](Cc2ccccc2)NC(=O)[C@H](CCN)NC(=O)[C@@H](NC(=O)[C@H](CCN)NC(=O)[C@@H](NC(=O)[C@H]2CC[C@H](O)CC2)C(C)O)CCNC(=O)[C@H](C(C)O)NC(=O)[C@H](CCN)NC(=O)[C@H](CCN)NC1=O (stereo partly drawn) [Example 25, trans-4-hydroxycyclohexane carbonyl polymyxin B nonapeptide] (X18-[Thr(3ξ)][Dab][Dab][Dab][dF]L[Dab][Dab][Thr(3ξ)]; lactam 3-C) | – | – | – | – | – | – | – | – | 1 | 8 | 2 | 0.5 | 8 | 4 | 0.125 |
